Measurements published in ChEMBL document CHEMBL6078640, “Trivalent oleanolic acid-glucose conjugates: Synthesis and efficacy against Influenza A virus” (Eur J Med Chem, 2024).
Calls of active or inactive are those of the source. No cut-off for these calls is given here.

Key:
MDCK = experiment: Cytotoxicity against dog MDCK cells assessed as reduction in cell viability at 100 uM incubated for 40 hrs by celltiter-glo assay; assay type: toxicity, cell-based, Canis lupus familiaris
Influenza A virus [1] = experiment: Antiviral activity against Influenza A virus H1N1 infected in MDCK cells assessed as inhibition of viral growth at 100 uM relative to control; assay type: functional
Influenza A virus [2] = experiment: Antiviral activity against influenza A virus A/WSN/33(H1N1) infected in MDCK cells assessed as inhibition of viral-induced cytopathic effect pretreated with cells followed by viral infection and measured after 40 hrs by fluorescence based microplate reader analysis; assay type: functional, organism-based
[3] = Cytotoxicity against dog MDCK cells assessed as reduction in cell viability incubated for 40 hrs by celltiter-glo assay; assay type: toxicity, cell-based, Canis lupus familiaris
[4] = Selectivity index, ratio of CC50 for dog MDCK cells to IC50 for influenza A virus A/WSN/33(H1N1) infected in MDCK cells; assay type: toxicity, cell-based; conditions: read-out: Selectivity Index
Influenza A virus [5] = experiment: Antiviral activity against Influenza A virus A/WSN/33(H1N1) infected in female BALB/c kunming mouse assessed as reduction in lung index at 12.5 mg/kg/day, administered intranasally once per day for 7 days starting from 24 hrs post-viral infection and measured daily; assay type: functional; conditions: time 7 day
Influenza A virus [6] = experiment: Antiviral activity against Influenza A virus A/WSN/33(H1N1) infected in female BALB/c kunming mouse assessed as reduction in severe pneumonia at 10 mg/kg/day, administered intranasally once per day for 7 days starting from 24 hrs post-viral infection and measured daily; assay type: functional, organism-based; conditions: time 7.0 day
Influenza A virus [7] = experiment: Antiviral activity against Influenza A virus A/WSN/33(H1N1) infected in female BALB/c kunming mouse assessed as reduction in immune cell infiltration at 10 mg/kg/day, administered intranasally once per day for 7 days starting from 24 hrs post-viral infection and measured daily; assay type: functional, organism-based; conditions: time 7.0 day

SMILES | Activity (MDCK) | inhibition at 100 µM (Influenza A virus [1]) [%] | IC50 (Influenza A virus [2]) [µM] | CC50 at 40 h [3] [µM] | selectivity ratio [4] | Activity_index (Influenza A virus [5]) | Activity (Influenza A virus [6]) | Activity (Influenza A virus [7])
CC1(C)CC[C@]2(C(=O)NCc3cn([C@@H]4O[C@H](CO)[C@@H](O)[C@H](O)[C@H]4O)nn3)CC[C@]3(C)C(=CC[C@@H]4[C@@]5(C)CC[C@H](O)C(C)(C)[C@@H]5CC[C@]43C)[C@@H]2C1 | Non-toxic | > 75 | 1.36 | > 100 | > 73.5 | 1.4 | Active | Active
CC(=O)OC[C@H]1O[C@@H](n2cc(CNC(=O)[C@]34CCC(C)(C)C[C@H]3C3=CC[C@@H]5[C@@]6(C)CC[C@H](OC(=O)NCCCCCc7cn(CC(CO)(Cn8cc(CCCCCNC(=O)O[C@H]9CC[C@]%10(C)[C@H]%11CC=C%12[C@@H]%13CC(C)(C)CC[C@]%13(C(=O)NCc%13cn([C@@H]%14O[C@H](COC(C)=O)[C@@H](OC(C)=O)[C@H](OC(C)=O)[C@H]%14OC(C)=O)nn%13)CC[C@@]%12(C)[C@]%11(C)CC[C@H]%10C9(C)C)nn8)Cn8cc(CCCCCNC(=O)O[C@H]9CC[C@]%10(C)[C@H]%11CC=C%12[C@@H]%13CC(C)(C)CC[C@]%13(C(=O)NCc%13cn([C@@H]%14O[C@H](COC(C)=O)[C@@H](OC(C)=O)[C@H](OC(C)=O)[C@H]%14OC(C)=O)nn%13)CC[C@@]%12(C)[C@]%11(C)CC[C@H]%10C9(C)C)nn8)nn7)C(C)(C)[C@@H]6CC[C@@]5(C)[C@]3(C)CC4)nn2)[C@H](OC(C)=O)[C@@H](OC(C)=O)[C@@H]1OC(C)=O | Non-toxic | > 75 | 24.9 | > 100 | > 4.02 |  |  | 
CC(=O)OC[C@H]1O[C@@H](n2cc(CNC(=O)[C@]34CCC(C)(C)C[C@H]3C3=CC[C@@H]5[C@@]6(C)CC[C@H](OC(=O)NCCCc7cn(Cc8cc(Cn9cc(CCCNC(=O)O[C@H]%10CC[C@]%11(C)[C@H]%12CC=C%13[C@@H]%14CC(C)(C)CC[C@]%14(C(=O)NCc%14cn([C@@H]%15O[C@H](COC(C)=O)[C@@H](OC(C)=O)[C@H](OC(C)=O)[C@H]%15OC(C)=O)nn%14)CC[C@@]%13(C)[C@]%12(C)CC[C@H]%11C%10(C)C)nn9)cc(Cn9cc(CCCNC(=O)O[C@H]%10CC[C@]%11(C)[C@H]%12CC=C%13[C@@H]%14CC(C)(C)CC[C@]%14(C(=O)NCc%14cn([C@@H]%15O[C@H](COC(C)=O)[C@@H](OC(C)=O)[C@H](OC(C)=O)[C@H]%15OC(C)=O)nn%14)CC[C@@]%13(C)[C@]%12(C)CC[C@H]%11C%10(C)C)nn9)c8)nn7)C(C)(C)[C@@H]6CC[C@@]5(C)[C@]3(C)CC4)nn2)[C@H](OC(C)=O)[C@@H](OC(C)=O)[C@@H]1OC(C)=O | Non-toxic | > 75 | 6.39 | > 100 | > 15.6 |  |  | 
CC1(C)CC[C@]2(C(=O)NCc3cn([C@@H]4O[C@H](CO)[C@@H](O)[C@H](O)[C@H]4O)nn3)CC[C@]3(C)C(=CC[C@@H]4[C@@]5(C)CC[C@H](OC(=O)NCCCc6cn(CC(CO)(Cn7cc(CCCNC(=O)O[C@H]8CC[C@]9(C)[C@H]%10CC=C%11[C@@H]%12CC(C)(C)CC[C@]%12(C(=O)NCc%12cn([C@@H]%13O[C@H](CO)[C@@H](O)[C@H](O)[C@H]%13O)nn%12)CC[C@@]%11(C)[C@]%10(C)CC[C@H]9C8(C)C)nn7)Cn7cc(CCCNC(=O)O[C@H]8CC[C@]9(C)[C@H]%10CC=C%11[C@@H]%12CC(C)(C)CC[C@]%12(C(=O)NCc%12cn([C@@H]%13O[C@H](CO)[C@@H](O)[C@H](O)[C@H]%13O)nn%12)CC[C@@]%11(C)[C@]%10(C)CC[C@H]9C8(C)C)nn7)nn6)C(C)(C)[C@@H]5CC[C@]43C)[C@@H]2C1 | Non-toxic | > 75 | 3.93 | > 100 | > 25.5 |  |  | 
CC(=O)OC[C@H]1O[C@@H](n2cc(CNC(=O)[C@]34CCC(C)(C)C[C@H]3C3=CC[C@@H]5[C@@]6(C)CC[C@H](OC(=O)NCc7cn(Cc8cc(Cn9cc(CNC(=O)O[C@H]%10CC[C@]%11(C)[C@H]%12CC=C%13[C@@H]%14CC(C)(C)CC[C@]%14(C(=O)NCc%14cn([C@@H]%15O[C@H](COC(C)=O)[C@@H](OC(C)=O)[C@H](OC(C)=O)[C@H]%15OC(C)=O)nn%14)CC[C@@]%13(C)[C@]%12(C)CC[C@H]%11C%10(C)C)nn9)cc(Cn9cc(CNC(=O)O[C@H]%10CC[C@]%11(C)[C@H]%12CC=C%13[C@@H]%14CC(C)(C)CC[C@]%14(C(=O)NCc%14cn([C@@H]%15O[C@H](COC(C)=O)[C@@H](OC(C)=O)[C@H](OC(C)=O)[C@H]%15OC(C)=O)nn%14)CC[C@@]%13(C)[C@]%12(C)CC[C@H]%11C%10(C)C)nn9)c8)nn7)C(C)(C)[C@@H]6CC[C@@]5(C)[C@]3(C)CC4)nn2)[C@H](OC(C)=O)[C@@H](OC(C)=O)[C@@H]1OC(C)=O | Non-toxic | > 75 | 0.68 | > 100 | > 147 |  |  | 
CC1(C)CC[C@]2(C(=O)NCc3cn([C@@H]4O[C@H](CO)[C@@H](O)[C@H](O)[C@H]4O)nn3)CC[C@]3(C)C(=CC[C@@H]4[C@@]5(C)CC[C@H](OC(=O)NCCc6cn(Cc7cc(Cn8cc(CCNC(=O)O[C@H]9CC[C@]%10(C)[C@H]%11CC=C%12[C@@H]%13CC(C)(C)CC[C@]%13(C(=O)NCc%13cn([C@@H]%14O[C@H](CO)[C@@H](O)[C@H](O)[C@H]%14O)nn%13)CC[C@@]%12(C)[C@]%11(C)CC[C@H]%10C9(C)C)nn8)cc(Cn8cc(CCNC(=O)O[C@H]9CC[C@]%10(C)[C@H]%11CC=C%12[C@@H]%13CC(C)(C)CC[C@]%13(C(=O)NCc%13cn([C@@H]%14O[C@H](CO)[C@@H](O)[C@H](O)[C@H]%14O)nn%13)CC[C@@]%12(C)[C@]%11(C)CC[C@H]%10C9(C)C)nn8)c7)nn6)C(C)(C)[C@@H]5CC[C@]43C)[C@@H]2C1 | Non-toxic | > 75 | 20.1 | > 100 | > 4.97 |  |  | 
CC(=O)OC[C@H]1O[C@@H](n2cc(CNC(=O)[C@]34CCC(C)(C)C[C@H]3C3=CC[C@@H]5[C@@]6(C)CC[C@H](OC(=O)NCc7cn(CC(CO)(Cn8cc(CNC(=O)O[C@H]9CC[C@]%10(C)[C@H]%11CC=C%12[C@@H]%13CC(C)(C)CC[C@]%13(C(=O)NCc%13cn([C@@H]%14O[C@H](COC(C)=O)[C@@H](OC(C)=O)[C@H](OC(C)=O)[C@H]%14OC(C)=O)nn%13)CC[C@@]%12(C)[C@]%11(C)CC[C@H]%10C9(C)C)nn8)Cn8cc(CNC(=O)O[C@H]9CC[C@]%10(C)[C@H]%11CC=C%12[C@@H]%13CC(C)(C)CC[C@]%13(C(=O)NCc%13cn([C@@H]%14O[C@H](COC(C)=O)[C@@H](OC(C)=O)[C@H](OC(C)=O)[C@H]%14OC(C)=O)nn%13)CC[C@@]%12(C)[C@]%11(C)CC[C@H]%10C9(C)C)nn8)nn7)C(C)(C)[C@@H]6CC[C@@]5(C)[C@]3(C)CC4)nn2)[C@H](OC(C)=O)[C@@H](OC(C)=O)[C@@H]1OC(C)=O | Non-toxic | > 75 | 70.4 | > 100 | > 1.42 |  |  | 
